The nature of the series: photoluminescence quantum yield (fraction); solvent given as SMILES.

As to `Cc1ccc(C2CC(c3ccc(O)cc3)=NN2c2ccc(S(N)(=O)=O)cc2)cc1` (stereo not given), the photoluminescence quantum yield by setting is: (in C1CCOC1) 0.7; (in C1COCCO1) 0.73; (in CC#N) 0.64; (in CC(C)O) 0.5; (in CCO) 0.43; (in CCOC(C)=O) 0.68. The photoluminescence quantum yield was 0.76 (in CN(C)C=O), 0.33 (in CO), 0.82 (in CS(C)=O) and 0.55 (in O).

As to `c1ccc(-c2nc(-c3ccccc3)nc(-c3cc(-n4c5ccccc5c5ccccc54)c(-n4c5ccccc5c5ccccc54)c(-n4c5ccccc5c5ccccc54)c3)n2)cc1`, the photoluminescence quantum yield came out at 0.82 (in O=P(c1ccccc1)(c1ccccc1)c1ccc2oc3ccc(P(=O)(c4ccccc4)c4ccccc4)cc3c2c1) and 1 (in O=P(c1ccccc1)(c1ccccc1)c1ccccc1Oc1ccccc1P(=O)(c1ccccc1)c1ccccc1).

`CCOC(=O)c1cc(C(=O)OCC)c2ccccc2n1` displayed a photoluminescence quantum yield (in CCO) of 0.006.

With `COc1nc(Nc2ccc3c4cccc5cccc(c6cccc2c63)c54)nc(OC)n1`, the photoluminescence quantum yield by setting is: (in C1COCCO1) 0.51; (in CC#N) 0.43; (in CCCCOCCCC) 0.46; (in CCOC(C)=O) 0.47.

For `CC(C)[Si](C#Cc1c2nc3c(nc2c(C#C[Si](C(C)C)(C(C)C)C(C)C)c2nc4c(nc12)C1c2ccccc2C4c2ccccc21)C1c2ccccc2C3c2ccccc21)(C(C)C)C(C)C`, the photoluminescence quantum yield (in CCCCCC) is 0.33.

The compound `Cc1cc(-c2nc(-c3ccccc3)nc(-c3ccccc3)n2)ccc1-c1ccc2c(c1)C1(c3ccccc3-c3ccccc31)c1ccccc1N2c1ccccc1` had a photoluminescence quantum yield (in c1cc(-c2cccc(-n3c4ccccc4c4ccccc43)c2)cc(-n2c3ccccc3c3ccccc32)c1) of 1.

With `CN(C)c1ccc(-c2cc(-c3ccc(C#N)cc3)nn2C)cc1`, the photoluminescence quantum yield (in ClCCl) stood at 0.21.

Regarding `C(S/C=C/c1ccc(-c2ccc(/C=C/SC=C3CCCCC3)cc2)cc1)=C1CCCCC1`, the photoluminescence quantum yield (in ClCCl) is 0.238.

The compound `Fc1nc(F)c(F)c(/C=C2/C(c3c(F)c(F)nc(F)c3F)=Cc3ccccc32)c1F` registered a photoluminescence quantum yield (in CC#N) of 0.01.

In the case of `CCN(CC)c1ccc2c(-c3ccccc3C(=O)O)c3c([o+]c2c1)/C(=C/c1nc(C)n2ccccc12)CCC3`, where the note is “in ClCCl”, the photoluminescence quantum yield came out at 0.3.

With `CC1=C(C#Cc2ccccc2)C2=Cc3c(C#Cc4ccccc4)c(C)c(C)n3[B-](F)(F)[N+]2=C1C`, the photoluminescence quantum yield (in CC#N) was 1.

As for `F[B-]1(F)n2c(Cl)c(Cl)c(Br)c2C(Cl)=C2C(Br)=C(Cl)C(Cl)=[N+]21`, under “in ClCCl”, the photoluminescence quantum yield was found to be 0.18.

In turn, `CC(C)(C)c1ccc(C2=Cc3cc4c(cc3P2(=O)c2ccccc2)C=C(c2ccc(C(C)(C)C)cc2)P4(=O)c2ccccc2)cc1` (stereo not given) had a photoluminescence quantum yield (in C1CCOC1) of 0.44.

As to `CCn1c(-c2ccc(-c3ccc(-c4ccc(-c5n(CC)c6ccccc6[n+]5CC)cc4)c(C)c3)cc2)[n+](CC)c2ccccc21`, for the setting “in O”, the photoluminescence quantum yield was 0.71.

`COc1ccc(C#Cc2cc3ccccc3oc2=O)cc1` had a photoluminescence quantum yield (in CC#N) of 0.55.

On to `COc1ccc2c(-c3nc(-c4cccc(C)c4)no3)cc(=O)oc2c1`, for which the photoluminescence quantum yield is, setting by setting: (in CCO) 0.52; (in ClC(Cl)Cl) 0.12.

On to `Cc1cccc2nc(-c3ccc(-c4cc(=O)cc(-c5ccccc5)o4)cc3)c(NC3CCCCC3)n12`, for which the photoluminescence quantum yield (in ClCCl) is 0.032.

For the compound `COc1ccc(N(c2ccc(OC)cc2)c2cc3ccc4cc(B(c5c(C)cc(C)cc5C)c5c(C)cc(C)cc5C)cc5ccc(c2)c3c45)cc1`, the photoluminescence quantum yield runs as follows: (in C1CCOC1) 0.44; (in CC(C)=O) 0.21; (in CCCCCC) 0.22; (in Cc1ccccc1) 0.27; (in ClC(Cl)Cl) 0.23; (in ClCCl) 0.42.

`Cc1cc(C)c(B(c2cc3c4c(c(B(c5c(C)cc(C)cc5C)c5c(C)cc(C)cc5C)cc5c4c2CCC5)CCC3)c2c(C)cc(C)cc2C)c(C)c1` had a photoluminescence quantum yield (in CCCCCC) of 0.9.

Take `COc1ccc(/C=C/c2nc3ccccc3o2)cc1`: the photoluminescence quantum yield was determined as 0.006 (in C1CCCCC1) and 0.001 (in CO).

With `Cc1ccc(C2=C3C=C(I)C(I)=[N+]3[B-](F)(F)n3c2cc(I)c3I)cc1`, the photoluminescence quantum yield reads like this: (in C1CCCCC1) 0.099; (in CC#N) 0.058; (in CCO) 0.067; (in CCOC(C)=O) 0.073; (in CO) 0.061; (in OCC(F)(F)F) 0.059.

For the compound `Cc1ccc(C)n1-c1cccc(C#N)c1`, the photoluminescence quantum yield was 0.006 (in C1CCOC1); 0.004 (in CCCCCC); 0.004 (in CCCCCl); 0.006 (in CCOCC); 0.003 (in ClCCl).

`Cc1ccc(-c2sc(/C(C#N)=C/c3ccc(C#N)cc3)nc2-c2ccc(Cl)cc2)cc1` gave a photoluminescence quantum yield (in CC#N) of 0.11.

With `CCCc1ccc(C#Cc2cc(C#Cc3ccc(CCC)cc3)c3ccc4c(C#Cc5ccc(N(C)C)cc5)cc(C#Cc5ccc(CCC)cc5)c5ccc2c3c54)cc1`, for the setting “in ClCCl”, the photoluminescence quantum yield came out at 0.44.

Consider `COc1ccc(-n2c3c4ccccc4nc(-c4ccc(C#N)cc4)c3c3c2c2c(-c4ccc(C#N)cc4)nc4ccccc4c2n3-c2ccc(OC)cc2)cc1`, for which the photoluminescence quantum yield (in ClC(Cl)Cl) worked out at 0.074.

In the case of `Cc1ccc(C2=C3C=C(I)C=[N+]3[B-](F)(F)n3c2cc(I)c3I)cc1`, the photoluminescence quantum yield is, setting by setting: (in C1CCCCC1) 0.06; (in CC#N) 0.02; (in CCO) 0.026; (in CCOC(C)=O) 0.034; (in CO) 0.025; (in OCC(F)(F)F) 0.022.

On to `COc1ccc2c(c1)c1cc(OC)ccc1c1c2c2c(C(=O)NC(C)(C)C)ccc(C(=O)NC(C)(C)C)c2c2c3ccc(OC)cc3c3cc(OC)ccc3c21`, for which the photoluminescence quantum yield (in ClCCl) worked out at 0.1.

In the case of `CCN(CC)c1ccc2cc(-c3nc4cc(C(=O)Nc5ccc(C)cc5[N+](=O)[O-])ccc4o3)c(=O)oc2c1`, the photoluminescence quantum yield (in ClCCl) turned out to be 0.43.

As for `CC(C)[Si](C#Cc1ccc(C#C[Si](C(C)C)(C(C)C)C(C)C)c2nc3c4ccccc4c(=O)c4ccccc4c3nc12)(C(C)C)C(C)C`, where the note is “in ClCCl”, the photoluminescence quantum yield was found to be 0.08.

Consider `CCCCC1(c2ccccc2)Nc2c(-c3ccc(N(C)c4ccccc4)cc3)ccc(-c3ccc(N(C)c4ccccc4)cc3)c2N=C1c1ccccc1` (stereo not given), for which the photoluminescence quantum yield (in ClC(Cl)Cl) is 0.01.

With `Cc1ccc(-c2cccc3ncc(-c4ccccc4)n23)cc1`, the photoluminescence quantum yield (in ClCCl) came out at 0.28.

`CN(C)c1ccc(/C=C/c2ccc(-c3nc(C#N)c(C#N)n3C)cc2)cc1` displayed a photoluminescence quantum yield (in C1CCCCC1) of 0.17, a photoluminescence quantum yield (in CC#N) of 0.002, a photoluminescence quantum yield (in CO) of 0.002 and a photoluminescence quantum yield (in ClC(Cl)Cl) of 0.16.

For the setting “in Cc1ccccc1”, `CCCCC1(CCCC)c2cc(C#Cc3ccc4ccc5cccc6ccc3c4c56)ccc2-c2ccc(N(c3ccccc3)c3ccccc3)cc21` returned a photoluminescence quantum yield of 0.72.

Regarding `COc1ccc(-c2cnc(-c3cccnc3)o2)cc1OC`, the photoluminescence quantum yield (in ClCCl) worked out at 0.98.

As to `CCN(CC)c1ccc(-c2nc(Oc3ccc(-c4nc5ccc(Cl)cc5o4)cc3)nc(Oc3ccc(-c4nc5ccc(Cl)cc5o4)cc3)n2)cc1`, the photoluminescence quantum yield (in CN(C)C=O) was 0.0179.

On to `CCOC(=O)/N=c1/oc2cc(N(CC)CC)ccc2cc1C#N`, for which the photoluminescence quantum yield (in ClCCl) was found to be 0.85.

`Cc1ccccc1`: the photoluminescence quantum yield (in C1CCCCC1) amounted to 0.22.

`C(=C(c1ccccc1)c1ccccc1)c1ccc(-c2cc(-c3ccc(C=C(c4ccccc4)c4ccccc4)cc3)c(-c3ccc(C=C(c4ccccc4)c4ccccc4)cc3)cc2-c2ccc(C=C(c3ccccc3)c3ccccc3)cc2)cc1` had a photoluminescence quantum yield (in C1CCOC1) of 0.0282.

On to `CC1=CC(C)=[N+]2C1=Cc1c(C)c(C3=C(C)C4=Cc5c(C)cc(C)n5[B-](F)(F)[N+]4=C3C)c(C)n1[B-]2(F)F`, for which, where the note is “in ClCCl”, the photoluminescence quantum yield came to 0.66.

Compound `Cc1c(C(=O)c2ccc3c4cccc5cccc(c6cccc2c63)c54)c2ccc3cccc4c5cccc6ccc1c(c65)c2c34` yielded a photoluminescence quantum yield (in ClCCl) of 0.069.

Regarding `CC[N+]1=C(/C=C/c2c(C)nn3c(-c4ccc(OC)cc4)ccnc23)C(C)(C)c2ccccc21`, the photoluminescence quantum yield runs as follows: (in CCO) 0.37; (in ClCCl) 0.13; (in O) 0.42.

Under “in ClC(Cl)Cl”, `CCn1c2ccccc2oc2c(C#N)c3c(oc4ccccc4n3CC)c(C#N)c21` had a photoluminescence quantum yield of 0.44.

`Cc1ccc(-n2cccc2)cc1` showed a photoluminescence quantum yield (in CC#N) of 0.4 and a photoluminescence quantum yield (in CCCCCC) of 0.28.

In the case of `COc1ccc2c(c1)-c1cc3c(cc1[Si]2(c1ccccc1)c1ccccc1)-c1ccccc1[Si]3(c1ccccc1)c1ccccc1`, where the note is “in ClCCl”, the photoluminescence quantum yield came to 0.4.

With `CCC1=C(C)C(=O)n2c1cc1[nH]c(C(=O)OC(C)(C)C)c(C)c1c2=O`, the photoluminescence quantum yield stood at 0.03 (in C1CCCCC1); 0.71 (in CO); 0.86 (in CS(C)=O); 0.72 (in ClC(Cl)Cl); 0.16 (in c1ccccc1).

Consider `c1ccc2c(c1)[nH]c1ccccc12`, for which the photoluminescence quantum yield was found to be 0.62 (in CC#N), 0.53 (in CCCCCC) and 0.44 (in CCO).

`C/C(=C\c1ccc(Cl)cc1)c1nc2ccccc2o1` returned a photoluminescence quantum yield (in C1CCCCC1) of 0.02 and a photoluminescence quantum yield (in CO) of 0.003.

Take `Cc1ccc(-c2ccc(/C=C/c3ccccc3)cn2)nc1`: the photoluminescence quantum yield (in CC#N) was found to be 0.67.

For the compound `C(=C\c1ccc(-c2ccc(/C=C/c3ccc(-n4c5ccccc5c5ccccc54)cc3)s2)s1)/c1ccc(-n2c3ccccc3c3ccccc32)cc1`, the photoluminescence quantum yield reads like this: (in C1CCOC1) 0.1; (in CC#N) 0.09; (in CC(C)=O) 0.09; (in CN(C)C=O) 0.11; (in Cc1ccccc1) 0.11.

Source of the values: the Deep4Chem optical property database.
